Reference: PubChem BioAssay (NCI)
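Compound exposure: 48 hours, 5 concentrations, 96-well plates. Abbreviation: GI50, concentration required for 50% inhibition of growth. TGI denotes the concentration required for complete inhibition of growth.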

Experiments:
Assay in all cases: growth of human tumour cells (NCI), 48 h
[1] = system: A498 renal
[2] = system: A549 NSCLC
[3] = system: ACHN renal
[4] = system: BT-549 breast
[5] = system: CAKI-1 renal
[6] = system: CCRF-CEM leukemia
[7] = system: EKVX NSCLC
[8] = system: HCC-2998 colon
[9] = system: HCT-116 colon
[10] = system: HCT-15 colon
[11] = system: HL-60(TB) leukemia
[12] = system: HOP-62 NSCLC
[13] = system: HOP-92 NSCLC
[14] = system: HS 578T breast
[15] = system: IGROV1 ovarian
[16] = system: K-562 leukemia
[17] = system: MCF7 breast
[18] = system: MOLT-4 leukemia
[19] = system: NCI-H226 lung
[20] = system: NCI-H23 lung
[21] = system: NCI-H460 lung
[22] = system: NCI-H522 lung
[23] = system: OVCAR-3 ovarian
[24] = system: OVCAR-8 ovarian
[25] = system: PC-3 prostate
[26] = system: RXF 393 renal
[27] = system: SF-268 CNS
[28] = system: SF-295 CNS
[29] = system: SF-539 CNS
[30] = system: SK-MEL-2 melanoma
[31] = system: SK-MEL-5 melanoma
[32] = system: SK-OV-3 ovarian
[33] = system: SR leukemia
[34] = system: T-47D breast
[35] = system: U251 CNS
[36] = system: UACC-62 melanoma
[37] = system: 786-0 renal
[38] = system: COLO 205 colon
[39] = system: DU-145 prostate
[40] = system: HT29 colon
[41] = system: KM12 colon
[42] = system: LOX IMVI melanoma
[43] = system: M14 melanoma
[44] = system: MALME-3M melanoma
[45] = system: MDA-MB-435
[46] = system: NCI/ADR-RES ovarian
[47] = system: RPMI-8226 leukemia
[48] = system: SK-MEL-28 melanoma
[49] = system: SNB-19 CNS
[50] = system: SNB-75 CNS
[51] = system: SW-620 colon
[52] = system: TK-10 renal
[53] = system: UACC-257 melanoma
[54] = system: UO-31 renal

COc1cc(/C=C/C(=O)c2ccc(Nc3nc(NCCO)nc(N4CCOCC4)n3)cc2)cc(OC)c1OC
GI50 [1]: 1.32 µM | TGI [1]: 5.01 µM | GI50 [2]: 2.18 µM | TGI [2]: > 100 µM | GI50 [3]: 1.95 µM | TGI [3]: 5.61 µM | GI50 [4]: 1.35 µM | TGI [4]: 2.86 µM | GI50 [5]: 2.09 µM | TGI [5]: 11 µM | GI50 [6]: 0.935 µM | TGI [6]: 3.54 µM | GI50 [7]: 2.83 µM | TGI [7]: > 100 µM | GI50 [8]: 1.8 µM | TGI [8]: 3.3 µM | GI50 [9]: 1.3 µM | TGI [9]: 3 µM | GI50 [10]: 1.43 µM | TGI [10]: 4.4 µM | GI50 [11]: 1.79 µM | TGI [11]: 4.78 µM | GI50 [12]: 2.72 µM | TGI [12]: 7.75 µM | GI50 [13]: 1.61 µM | TGI [13]: 7.4 µM | GI50 [14]: 1.65 µM | TGI [14]: 5.46 µM | GI50 [15]: 1.9 µM | TGI [15]: 4.59 µM | GI50 [16]: 0.783 µM | TGI [16]: 7.56 µM | GI50 [17]: 1.17 µM | TGI [17]: 2.77 µM | GI50 [18]: 1.19 µM | TGI [18]: 4.37 µM | GI50 [19]: 2.15 µM | TGI [19]: 5.18 µM | GI50 [20]: 2.03 µM | TGI [20]: 5.17 µM | GI50 [21]: 1.58 µM | TGI [21]: 3.47 µM | GI50 [22]: 1.59 µM | TGI [22]: 4.11 µM | GI50 [23]: 1.69 µM | TGI [23]: 4.26 µM | GI50 [24]: 2.2 µM | TGI [24]: > 100 µM | GI50 [25]: 2.14 µM | TGI [25]: 7.18 µM | GI50 [26]: 1.46 µM | TGI [26]: 3.23 µM | GI50 [27]: 1.88 µM | TGI [27]: 5.54 µM | GI50 [28]: 3.03 µM | TGI [28]: > 100 µM | GI50 [29]: 1.63 µM | TGI [29]: 3.16 µM | GI50 [30]: 1.71 µM | TGI [30]: 3.73 µM | GI50 [31]: 1.76 µM | TGI [31]: 3.28 µM | GI50 [32]: 3.05 µM | TGI [32]: 27.5 µM | GI50 [33]: 0.422 µM | TGI [33]: 3.22 µM | GI50 [34]: 1.8 µM | TGI [34]: 6.68 µM | GI50 [35]: 1.38 µM | TGI [35]: 2.97 µM | GI50 [36]: 1.54 µM | TGI [36]: 3.2 µM

CC[N+](CC)=c1cc2oc3cc(N(C)C)ccc3nc-2cc1C
GI50 [37]: 5.12 µM | TGI [37]: > 100 µM | GI50 [1]: 1.54 µM | TGI [1]: 30.8 µM | GI50 [2]: 1.71 µM | TGI [2]: 16 µM | GI50 [3]: 10.8 µM | TGI [3]: > 100 µM | GI50 [4]: 0.932 µM | TGI [4]: 13.6 µM | GI50 [5]: 3.07 µM | TGI [5]: 19.6 µM | GI50 [6]: 2.3 µM | TGI [6]: 65.4 µM | GI50 [38]: 0.66 µM | TGI [38]: 2.27 µM | GI50 [39]: 4.36 µM | TGI [39]: 33.4 µM | GI50 [7]: 1.53 µM | TGI [7]: 17.3 µM | GI50 [9]: 0.563 µM | TGI [9]: 4.85 µM | GI50 [10]: 2.75 µM | TGI [10]: > 100 µM | GI50 [11]: 0.313 µM | TGI [11]: 2.83 µM | GI50 [12]: 1.98 µM | TGI [12]: 37.1 µM | GI50 [13]: 1.15 µM | TGI [13]: 8.19 µM | GI50 [14]: 10.5 µM | TGI [14]: 64.2 µM | GI50 [40]: 3.47 µM | TGI [40]: > 100 µM | GI50 [16]: 1.78 µM | TGI [16]: > 100 µM | GI50 [41]: 0.975 µM | TGI [41]: 14.7 µM | GI50 [42]: 1.71 µM | TGI [42]: 12.3 µM | GI50 [43]: 0.471 µM | TGI [43]: 2.65 µM | GI50 [44]: 1.53 µM | TGI [44]: 5.33 µM | GI50 [17]: 0.352 µM | TGI [17]: 2.48 µM | GI50 [45]: 2.15 µM | TGI [45]: 17.7 µM | GI50 [19]: 6.76 µM | TGI [19]: 47.2 µM | GI50 [20]: 0.482 µM | TGI [20]: 6.79 µM | GI50 [21]: 1.86 µM | TGI [21]: 73.6 µM | GI50 [46]: 4.23 µM | TGI [46]: > 100 µM | GI50 [23]: 0.296 µM | TGI [23]: 1.02 µM | GI50 [24]: 2.11 µM | TGI [24]: 9.93 µM | GI50 [25]: 0.454 µM | TGI [25]: > 100 µM | GI50 [47]: 0.628 µM | TGI [47]: 10.1 µM | GI50 [26]: 15.2 µM | TGI [26]: 90.1 µM | GI50 [27]: 1.18 µM | TGI [27]: 3.48 µM | GI50 [28]: 1.93 µM | TGI [28]: 16.8 µM | GI50 [29]: 0.39 µM | TGI [29]: 13.1 µM | GI50 [30]: 0.519 µM | TGI [30]: 4.82 µM | GI50 [48]: 8.4 µM | TGI [48]: 42.1 µM | GI50 [31]: 1.04 µM | TGI [31]: 5.69 µM | GI50 [32]: 4.45 µM | TGI [32]: 98.7 µM | GI50 [49]: 2.9 µM | TGI [49]: > 100 µM | GI50 [50]: 2.59 µM | TGI [50]: 11.1 µM | GI50 [33]: 2.74 µM | TGI [33]: 75 µM | GI50 [51]: 0.791 µM | TGI [51]: 23 µM | GI50 [34]: 0.563 µM | TGI [34]: > 100 µM | GI50 [52]: 1.94 µM | TGI [52]: 8.38 µM | GI50 [35]: 0.538 µM | TGI [35]: 6.06 µM | GI50 [53]: 0.306 µM | TGI [53]: 1.56 µM | GI50 [36]: 3.24 µM | TGI [36]: 31.1 µM | GI50 [54]: 3.76 µM | TGI [54]: 41.9 µM
